“Also recorded” adds a separate entry of the source.
Experiments:
Type in all cases: in vivo, mouse
C1039G/+ mice [1] = experiment: Aortic wall histology (elastic matrix architecture) in treated C1039G/+ mice; details: 4 months of treatment
C1039G/+ mice [2] = experiment: Aortic root growth by echocardiography in C1039G/+ mice, 4 months of treatment
Description: Markers of TGFβ antagonism have included reduced plasma levels of free TGFβ, reduced intracellular initiation of the TGFβ signaling cascade, and reduced tissue expression of TGFβ-responsive genes. […] Three independent measurements of the aortic root were made from the long axis echo view in systole at each of 3 time points (baseline, 2 and 4 months of treatment; FIG. 8A). All analyses were performed blinded to genotype and treatment arm. […] This represents the first therapeutic strategy for MFS that derives from interrogation of disease pathogenesis and the first possibility for primary prevention of disease manifestations.

Fbn1C1039G/+ mice [3] = experiment: Postnatal treatment with losartan and propranolol, aorta of Fbn1C1039G/+ mice
Description: However, before treatment, the aortic diameter in Fbn1C1039G/+ mice was always greater than in untreated wild-type mice (1.59±0.11 mm; P<0.002).
Three independent aortic root measurements were obtained for each mouse every 2 months during the 6 months of treatment. Mice were killed at 8 months of age. […] The aortic root growth rate over this period was less in the wild-type mice than in the placebo-treated Fbn1C1039G/+ mice (P<0.0001, FIG. 21I).

Fbn1C1039G/+ mice [4] = experiment: Prenatal treatment with losartan and propranolol, aorta of Fbn1C1039G/+ mice; details: prenatal start
Description: Treatment of the mothers continued throughout lactation and was maintained in the pups after weaning. Mice were killed at 10 months of age. […] The average aortic wall thickness for untreated wild-type animals was smaller than that in placebo-treated Fbn1C1039G/+ mice (P<0.0001) but was indistinguishable from that in losartan-treated Fbn1C1039G/+ mice (P=0.24, FIG. 20E).

`CC(C)NCC(O)COc1cccc2ccccc12` (stereo not drawn) [propranolol] was tested, and the “Elastic matrix architecture / histologic parameters of the aorta” value (C1039G/+ mice [1]) was “did not improve”, the “Aortic growth during the 4 months of treatment” value (C1039G/+ mice [2]; C1039G/+ mice from 7 weeks of age, losartan 50 mg/kg or propranolol 40 mg/kg, aortic root, echo, placebo 0.44±0.09) was 0.22±0.06 mm and the “Improvement in any parameter” value (C1039G/+ mice [2]; propranolol dose with the same antihypertensive effect as losartan) was “little improvement”. The “Aortic wall / elastic fiber architecture” value (Fbn1C1039G/+ mice [3]; 6 months of treatment) was “no discernable effect”, the Aortic wall thickness (Fbn1C1039G/+ mice [3]; 6 months of treatment) was “no discernable effect” and the “Aortic root growth rate” value (Fbn1C1039G/+ mice [3]; during 6 months of treatment) was “slower rate of aortic root growth than did placebo-treated animals; also recorded: less than that with placebo, yet remains greater than that seen in wild-type mice”. For the same compound, the “TGF-β signaling in aortic media (nuclear pSmad2)” value (Fbn1C1039G/+ mice [3]; from 7 weeks of age, 6 months) was “Marked increase in nuclear staining for pSmad2”, the “Elastic fiber fragmentation (VVG staining)” value (Fbn1C1039G/+ mice [3]; from 7 weeks of age, 6 months, drinking water) was “diffuse fragmentation of elastic fibers” and the Aortic dilatation (Fbn1C1039G/+ mice [4]; 10 months) was “marked aortic dilatation”. For the same compound, the “Aortic wall architecture score” value (Fbn1C1039G/+ mice [4]; 10 months of treatment) was “not influenced”, the “Average aortic wall thickness” value (Fbn1C1039G/+ mice [4]; 10 months of treatment) was “indistinguishable from that in the placebo group” and the “Elastic fiber fragmentation / architecture (VVG staining)” value (Fbn1C1039G/+ mice [4]; drinking water, killed at 10 months) was “observed; also recorded: Marked elastic fiber disruption”.

Reference: patent US8597646B2, “Methods and compositons featuring TGF-beta antagonists for the treatment of marfan syndrome and associated disorders” (The Johns Hopkins University, priority 2005, dated 2013)
